Data: paper PMC8170916, “Sublingual AKBA Exerts Antidepressant Effects in the Aβ-Treated Mouse Model” (Biomolecules, 2021)

Tests used:
[1] = tested on: NF-kB p65; assay: Western blotting quantification of NF-kB p65 in PFC and HIPP; type: in vivo; conditions: mice 7 days after icv Aβ 4 µM, sublingual AKBA 5 mg/kg 30 min earlier
Experimental: All behavioral experiments were conducted at 5 or 30 min after sublingual administrations of AKBA or vehicle in either SHAM or Aβ-treated mice. Based upon behavioral outcomes observed, neurochemical and biochemical quantifications were performed 30 min after AKBA or vehicle administration in either SHAM or Aβ-treated mice.
Anesthetized animals were sacrificed by cervical dislocation. Brains were immediately removed and kept on ice for dissection of PFC and HIPP, according to the atlas of Paxinos and Franklin. Tissues were frozen and stored at −80 °C until analyses were carried out. Samples (PFC and HIPP) were homogenized (1:10 w/v) at 4 °C using a PBS buffer containing a 1:100 protease and phosphatase inhibitor cocktail (HALT inhibitors, Thermo Fisher Scientific, Cleveland, OH, USA) for biochemical analyses or perchloric acid 0.1 M for neurochemical analyses. Homogenates were centrifuged at 13,000× g at 4 °C for 20 min, and supernatants were used for further determinations.
The total amount of proteins was measured in homogenates by using Pierce BCA Assay (Thermo Fisher Scientific, Cleveland, OH, USA). Forty µg of the total lysate protein were separated by SDS-PAGE precast gels (Bio-Rad Laboratories Inc., Segrate (MI), Italy), transferred onto nitrocellulose membranes (Bio-Rad Laboratories Inc, Segrate (MI), Italy) and then blocked for 1 h in blocking buffer (SigmaAldrich, Milan, Italy). Rabbit polyclonal antibody against GFAP (Dako Products, USA; 1:2000), rabbit monoclonal antibody against CD11b (Abcam, Cambridge, MA, USA; ab133357, 1:1000) and mouse monoclonal antibody against NF-kB p65 (Santa Cruz Biotechnology, Dallas, Texas, USA; 1:2000) were used to incubate the membranes overnight at 4 °C. After HRP-conjugated specific antibody incubation, ECL reagent (Bio-Rad Laboratories Inc., Segrate (MI), Italy) was added to the immune complex and chemiluminescence was detected by ChemiDoc MP system (Bio-Rad Laboratories Inc., Segrate (MI), Italy). Optical densities of the bands were measured using ImageJ software (http://rsb.info.nih.gov/ij/ accessed on 15 March 2021) and normalized against bands relative to β-actin (1:5000, Abcam, Cambridge, UK).

[2] = tested on: Aβ-treated mice; assay: Splash test in Aβ-treated mice; type: in vivo; conditions: mice 7 days after icv Aβ 4 µM
[3] = tested on: Caco-2 cells; parameters: method as in PMID 19010411; conditions: in vitro model to simulate human intestinal absorption; cited from earlier work
[4] = Plasmatic AKBA levels after sublingual or intranasal administration; type: in vivo, mice; conditions: 5 mg/kg
Experimental: AKBA (Cayman Chemical Company) was dissolved in sunflower oil, this vehicle was chosen in order to maintain a better tasting and higher density of the final solution thus reducing reflux through the digestive tract. […] Ten µL of the solution (or vehicle alone) was sublingually administered to mice. For intranasal administration, requiring more hydrophilic solution, AKBA was dissolved in DMSO and saline (1:3, v/v), and given to mice at the same final dose of 5 mg/kg. […]
[…] The pellets were then removed, and the remaining supernatants were dried on sodium sulphate anhydrous, filtered with 0.20 µm PTFE syringe filters and used for chemical analysis. The quantification of 3-O-acetyl-11-keto-β-boswellic acid (AKBA) was performed by using GC-MS/IT equipment composed of a gas chromatograph GC-7890B (Agilent Technologies, Santa Clara, CA, USA) coupled with an ion trap mass spectrometer IT-240 (Agilent Technologies).
The gas chromatograph was equipped with a VF-5 ms (Agilent J&W GC Columns) capillary column, 30 m × 0.25 mm i.d. × 0.25 µm. […]
The MS electron multiplier voltage was set at 1450 V, and an ionization time of 65,000 µs was used, running in the electron impact (EI) mode. […] These characteristic fragments were selected as a mass target to develop the MS acquisition method operating in single ion scan mode (SIS) to improve the LOD and LOQ for AKBA quantification. […]

[5] = Cerebral AKBA quantification by GC-MS/IT after sublingual or intranasal administration; type: in vivo, mice; conditions: 5 mg/kg
Experimental: AKBA (Cayman Chemical Company) was dissolved in sunflower oil, this vehicle was chosen in order to maintain a better tasting and higher density of the final solution thus reducing reflux through the digestive tract. […] Ten µL of the solution (or vehicle alone) was sublingually administered to mice. For intranasal administration, requiring more hydrophilic solution, AKBA was dissolved in DMSO and saline (1:3, v/v), and given to mice at the same final dose of 5 mg/kg. Cerebral AKBA was quantified in a separate subset of mice at 5, 15 and 30 min after its administration, either sublingually or intranasally.
After administration, whole brains were put in 1 mL of a solution of chloroform/methanol (1:1 v/v), sonicated and then homogenates were centrifuged at 4 °C for 20 min (10,000 rpm). The pellets were then removed, and the remaining supernatants were dried on sodium sulphate anhydrous, filtered with 0.20 µm PTFE syringe filters and used for chemical analysis. The quantification of 3-O-acetyl-11-keto-β-boswellic acid (AKBA) was performed by using GC-MS/IT equipment composed of a gas chromatograph GC-7890B (Agilent Technologies, Santa Clara, CA, USA) coupled with an ion trap mass spectrometer IT-240 (Agilent Technologies).
The gas chromatograph was equipped with a VF-5 ms (Agilent J&W GC Columns) capillary column, 30 m × 0.25 mm i.d. × 0.25 µm. The column oven was set at 50 °C for 1 min after injection; then the temperature was increased from 50 °C to 300 °C with a ramp of 5 °C/min and a hold time of 10 min. The purge process was performed at the end of each run, increasing the oven temperature from 300 °C to 325 °C at 10 °C/min and a hold time of 1.5 min. The total time for each run was approximately 65 min. The injection volume was 2 µL (splitless) with a continuous flow rate of 1 mL/min of ultra-high purity helium (BIP®) and an injector temperature of 250 °C.
The MS electron multiplier voltage was set at 1450 V, and an ionization time of 65,000 µs was used, running in the electron impact (EI) mode. The transfer line, ion trap and manifold temperatures were set at 270 °C, 180 °C and 70 °C, respectively. The mass spectrometer firstly operated in full scan mode (50–700 m/z) with the ionizing voltage at 70 eV. […] Peaks at m/z 408 and m/z 393 were identified as M-AcOH-CO2 and M-AcOH-CO2-CH3. The peak at m/z 273 was identified as fragment A, resulting from retro-Diels–Alder fragmentation, while the peak at m/z 232 was identified as fragment B, generated from McLafferty fragmentation. These characteristic fragments were selected as a mass target to develop the MS acquisition method operating in single ion scan mode (SIS) to improve the LOD and LOQ for AKBA quantification. […]

[6] = sublingual AKBA 5 mg/kg 30 min before testing, Aβ vs SHAM, Aβ+AKBA vs Aβ
[7] = sublingual vs intranasal, 5, 15 and 30 min after administration

CC(=O)O[C@@H]1CC[C@@]2(C)[C@@H](CC[C@]3(C)[C@@H]2C(=O)C=C2[C@@H]4[C@@H](C)[C@H](C)CC[C@]4(C)CC[C@]23C)[C@@]1(C)C(=O)O [AKBA, 3-O-acetyl-11-keto-β-boswellic acid]
NF-kB p65 content in the HIPP (optical density normalized to actin) ([1]; HIPP): prevented such an increase | NF-kB p65 levels in the PFC (optical density normalized to actin) ([1]; PFC): prevented such an increase | Depressive-like behavior induced by Aβ in the splash test, 5 min after AKBA ([2]; sublingual AKBA 5 mg/kg 5 min before testing): not reverted | Latency to leak in the splash test [2, 6]: such an outcome was reverted | Time spent performing self-care in the splash test [2, 6]: prevented such an effect | Permeability in Caco-2 cells [3]: low permeability | Plasmatic AUCs, sublingual vs intranasal [4]: higher after sublingual administration | Plasmatic AKBA levels [4, 7]: significantly higher after sublingual administration compared to intranasal | Cerebral AUCs, sublingual vs intranasal ([5]; same dose by both routes): sublingual route of administration was characterized by higher bioavailability | Crossing of the blood brain barrier ([5]; sublingual or intranasal): rapidly crossed the blood brain barrier | Time of highest cerebral AKBA concentrations after administration ([5]; sublingual or intranasal, sampled at 5, 15, 30 min): 5 min | Cerebral AKBA levels (whole brain) [5, 7]: significantly higher after sublingual administration compared to intranasal
